pEC50: −log10 of the molar value.
Legend:
[1] = from CO[C@@H](C)c1ncccc1-c1c(CC(C)(C)CO)c2cc(-c3nc(C[C@H](NC(=O)OC(C)(C)C)C(=O)N4CCC[C@@H](C(=O)O)N4)ns3)ccc2n1CC(F)(F)F; ester bond; 18-membered ring; EDCI/HOBt/DIPEA; DCM; 11.1 mM
[2] = from CO[C@@H](C)c1ncccc1-c1c(CC(C)(C)CO)c2cc(-c3nc(C[C@H](NC(=O)OC(C)(C)C)C(=O)N4CCC[C@@H](C(=O)O)N4)ns3)ccc2n1CC(F)(F)F; ester bond; EDCI/HOBt/DIPEA; DCM; 11.1 mM; 25.0 °C; 16.0 h
[3] = system: SW1573; conditions: Canon et al. 2019; cited from earlier work
[4] = system: NCI-H358 KRASG12C xenograft; assay: In vivo NSCLC K-Ras G12C xenograft model; set-up: species or system BALB/c nude mice
Experimental: Cobimetinib was administered by daily oral gavage at 2.5 mg/kg. The combination of Compound B and cobimetinib at their respective single-agent dose and regimen was also tested.

[5] = system: NCI-H358 cells; assay: Long-term cell proliferation assay (Incucyte confluence); assay type: cell-based, human; conditions: trametinib 10 nM
Experimental: The plate was placed in the Incucyte S3 live cell analysis system (37° C., 5% CO2) and confluence was measured by recording images at 6-hour intervals for a maximum of 40 days, or until wells reached maximal confluence. Media and drug were replaced at 3-4 day intervals. Data are plotted as % confluence over the time course of the experiment for each single agent and respective combination (FIG. 5).

[6] = system: NCI-H358 cells; assay: 72-hour proliferation assay using CellTiter-Glo reagent; assay type: cell-based, human; conditions: read-out: EC50 from a 72-hour proliferation assay
[7] = single agent: Compound B 50 mg/kg twice weekly intravenous, cobimetinib […] daily oral

CO[C@@H](C)c1ncccc1-c1c2c3cc(ccc3n1CC(F)(F)F)-c1nc(ns1)C[C@H](NC(=O)OC(C)(C)C)C(=O)N1CCC[C@H](N1)C(=O)OCC(C)(C)C2
ring closure, isolated yield [1]: 43.5%
ring closure, yield of all isomers [2]: 43.5%

C=CC(=O)N1CCN(c2nc(=O)n(-c3c(C)ccnc3C(C)C)c3nc(-c4c(O)cccc4F)c(F)cc23)[C@@H](C)C1 [AMG510]
sensitivity of cell line [3]: insensitive

Cc1nc(N2CCC3(CC2)CO[C@@H](C)[C@H]3N)c(CO)nc1-c1cccc(Cl)c1Cl [RMC-4550]
mice with tumor regression at end of study (out of 10), single agent ([4]; single agent: Compound C 60 mg/kg once weekly intravenous, SHP2 inhibitor (RMC-4550) 30 mg/kg daily oral): 5

O=C(c1ccc(F)c(F)c1Nc1ccc(I)cc1F)N1CC(O)([C@@H]2CCCCN2)C1 [cobimetinib]
effect on tumor growth, single agent [4, 7]: tumor growth inhibition
tumor regressions recorded, single agent group [4, 7]: no tumor regressions

CC(=O)Nc1cccc(-n2c(=O)n(C3CC3)c(=O)c3c(Nc4ccc(I)cc4F)n(C)c(=O)c(C)c32)c1 [trametinib]
time to maximal confluence after the addition of drug ([5]; single agent at EC50 concentration: Compound D 17 nM): ~10 days
cell growth (% confluence) over time, single agent ([5]; submaximal (EC50) concentration: Compound D 17 nM): a short period of growth inhibition, followed by proliferation
pEC50 [6]: 8.00

Source: patent US11566007B2, “Ras inhibitors” (Revolution Medicines, Inc., priority 2019, dated 2023)
